Key:
B16F10 WT tumors = test: Tumor challenge, B16F10 WT in immunodeficient Nu/Nu nude mice; type: in vivo, mouse; conditions: 18 mg/kg intraperitoneally, days 5, 10 and 15
Method: (A) Experimental settings. Growth of (B) sarcoma MCA205 or (C) melanoma B16F10 cells that both stably express the globin-SL8-intron construct or (D) MCA205 Wild Type (WT) or (E) B16F10 WT cells that were subcutaneously inoculated on the flank of immunocompetent C57BL/6 mice injected intraperitoneally with 12 mg/kg or 18 mg/kg of isoginkgetin at days 5, 10 and 15 after inoculation. Tumor size was assessed every 3 to 4 days until reaching the established ethical endpoints. Each line represents the tumor size in area (mm^2) of 6 mice in each group. Size in area (mm^2) of (F) MCA205 globin-SL8-intron, (G) B16F10 globin-SL8-intron, (H) MCA205 WT or (I) B16F10 WT tumors subcutaneously inoculated on the flank of immunodeficient Nu/Nu Nude mice injected intraperitoneally with 18 mg/kg of isoginkgetin at days 5, 10 and 15 after inoculation. Data are presented at the day before the endpoints are reached.
Each line represents the tumor size in area (mm^2) of at least 6 mice in each group. The C right panel represents the tumor size at day 27. […]
Inventors then assessed the requirement of the immune response for isoginkgetin to reduce tumor growth Immunodeficient Nu/Nu nude mice were inoculated subcutaneously with either MCA205 or B16F10 cells that stably express the Globin-intron-SL8 or WT, and were treated with the same settings as previously described (FIG. 9A). […]

[1] = MTT assay on A549 cell line; type: cell-based; conditions: human, A549 lung carcinoma cells, read-out: % cell viability (±SEM)
Method: MCA205 mouse sarcoma cell line is cultured at 37° C. under 5% CO2 in RPMI 1640 medium (Life Technologies) in the presence of 1% glutamine, 1% sodium pyruvate, 1% non-essential amino-acids, 1% penicillin/streptomycin and 10% FBS (Life Technologies) under standard conditions. B16F10 mouse melanoma cell line, MRC5 human fibroblast cell line and A375 human melanoma cell line are cultured at 37° C. under 5% CO2 in DMEM medium (Life Technologies) containing 1% glutamine, 1% penicillin/streptomycin and 10% FCS under standard conditions. A549 human lung carcinoma cell line is cultured at 37° C. under 5% CO2 in DMEM/F12+Glutamax I in the presence of 1% Hepes, 1% sodium pyruvate and 10% FBS under standard conditions. Stable MCA205-Globin-SL8-intron cell line are cultured under the same condition as MCA205 cell line with additional 2 mg/ml G418 (geneticin from Life Technologies) for selection. Stable B16F10-Globin-SL8-intron cell line are cultured under the same condition as B16F10 cell line with additional 2 mg/ml G418 (geneticin from Life Technologies) for selection. The SL8/Kb-specific (B3Z) T-cell reporter hybridoma are cultured at 37° C. under 5% CO2 in RPMI 1640 medium (Life Technologies) in the presence of 1% glutamine, 0.1% β-galactosidase, 1% penicillin/streptomycin and 10% FCS under standard conditions. […]

[2] = test system: mouse melanoma cell line B16F10; test: B3Z SL8-specific T-cell activation assay, B16F10; type: cell-based; conditions: B16F10, Globin-intron-SL8; 15 μM or 35 μM
Method: B3Z SL8-specific T-cell activation after co-culture with (A) human melanoma A375, human lung carcinoma A549 or normal human lung fibroblast MRC5 cell lines, all transiently expressing the intron-derived SL8 peptide and the H2-K^b molecules and treated upstream with 2,5 μM or 6,25 μM isoginkgetin for 18 hours; or with (B) mouse sarcoma MCA205 or mouse melanoma B16F10 cell lines both transiently expressing the intron-derived SL8 peptide and treated upstream with 6,25 μM, 15 μM or 25 μM isoginkgetin for 18 hours. […]
Data are given as mean ±SEM. *P<0.05, **P<0.01, ***P<0.001 (unpaired student t test). […] Tumor size was assessed every 3 to 4 days until reaching the established ethical endpoints. […]
MCA205 and B16F10 mouse cell lines are transfected with the plasmid YFP-Globin-SL8-intron or with the PCDNA3 empty plasmid (negative control) with the transfection reagent jetPRIME (Ozyme) or GeneJuice (Millipore) respectively according to each manufacturer protocol. […] Finally, the β-galactosidase activity is measured using the FLUOstar OPTIMA (BMG LABTECH Gmbh, Offenburg, Germany). Results are expressed as mean ±SEM. *P<0.05, **P<0.01, ***P<0.001 (unpaired student t test).

COc1ccc(-c2cc(=O)c3c(O)cc(O)c(-c4cc(-c5cc(=O)c6c(O)cc(O)cc6o5)ccc4OC)c3o2)cc1 [Isoginkgetin, isoginkgetin]
tumor growth (B16F10 WT tumors): No effect | viability at 2.5 µM ([1]; A549, 2.5 μM): 100% | viability at 6.25 µM ([1]; A549, 6.25 μM): 84%

COc1ccc(-c2cc(=O)c3c(OC)cc(OP(=O)([O-])[O-])c(-c4cc(-c5cc(=O)c6c(OC)cc(OP(=O)([O-])[O-])cc6o5)ccc4OC)c3o2)cc1.[Na+].[Na+].[Na+].[Na+] [IM2P2]
intron-SL8-derived antigen presentation (B3Z activation) [2]: does not impact it

— patent publication US11110105B2, “Compounds, composition and uses thereof for treating cancer” (INSTITUT GUSTAVE ROUSSY, priority 2017, dated 2021)
